Among the data in patent US7608564B2, “3-heterocyclyl-substituted benzoyl derivatives” (BASF Aktiengesellschaft, priority 1997, dated 2009) are melting point values, retold here.

One may read the melting point as the temperature of the solid-liquid transition.

On to `Cn1ncc(C(=O)c2ccc(S(C)(=O)=O)c(C3=NOCC3)c2Cl)c1O` [3.35, 4-[2-Chloro-3-(4,5-dihydroisoxazol-3-yl)-4-methylsulfonyl-benzoyl]-5-hydroxy-1-methyl-1H-pyrazole], for which the melting point is over 250 °C.
